{
  "source": "patent US5900434A",
  "about": "“Method for inhibiting the production of interleukin-1 or tumor necrosis factor-α by administering acanthoic acid” (Korea Institute of Science and Technology, priority 1994, dated 1999)",
  "key": {"[1]": {"tested_on": "human monocytes and macrophages", "assay": "Cytotoxicity on human monocytes and macrophages (MTT)", "format": "cell-based", "conditions": "concentration lower than 10 μg/ml", "protocol": "Normal human peripheral blood was heparin-treated and diluted with equal amount of Hank's balanced salt solution (HBSS: Ca^2+ and Mg^2+ free). The diluted blood was put into a centrifuge tube containing therein Ficoll-Hypaque(Sigma, St. Louis, Mo., U.S.A.) layer having a density of 1.077 piled up on Ficoll-Hypaque layer having a density of 1.119, and then centrifuged at 700×g for 30 minutes to obtain monocytes from the layer between Ficoll-Hypaque layer having a density of 1.077 and serum layer, and neutrophils from the layer between Ficoll-Hypaque layer having a density of 1.077 and that having a density of 1.119. The separated cells were washed twice with 4° C. HBSS(Ca^2+ and Mg^2+ free) and suspended in RPMI 1640 medium(Gibco, Grand Island, N.Y., U.S.A.) containing 10% fetal bovine serum(FBS, Hyclone, Logan, Utah, U.S.A.). The suspensions were added to the wells of 24-well incubation plate(Costar, Cambridge, Mass., U.S.A.) and incubated at 37° C. for 2 hours to obtain monocytes, macrophages and neutrophils. […] The cytotoxicity of acanthoic acid was determined by the following procedures. […] 100 μl each of acidified isopropanol(0.04N HCl in isopropanol) was added to the cells in each well to elute formazan produced by the living cells, and optical density (O.D.) was determined at 540 nm by using an ELISA reader (Titertek multiskan Mcc/340)(FIG. 1). […]"}, "[2]": {"tested_on": "collagen synthesis in rat pulmonary fibroblast", "assay": "Inhibition of collagen synthesis in rat pulmonary fibroblasts (indirect ELISA)", "format": "cell-based", "conditions": "culture of rat pulmonary fibroblast pretreated with acanthoic acid, silica-stimulated; FIG. 7", "protocol": "Fibroblasts were separated from rats by using a modification of the method of Phan, S. H., et al. described in J. Clin. Invest., 76, 241(1985), as follows. A rat was anesthetized with ether and its lungs were isolated on the aseptic worktable. The lungs were cut into small pieces in the size ranging from 2 to 4 mm and suspended in phosphate buffered saline(PBS) containing collagenase and 0.5% trypsin to digest the tissues at 37° C. for 2 hours. The suspension was filtered through sterilized gauze to remove undigested tissues, etc. The separated cells were washed with PBS twice or three times and suspended into RPMI 1640 medium(Gibco, Grand Island, N.Y., U.S.A.) containing 10% fetal bovine serum(FBS, Hyclone, Logan, Utah, U.S.A.). […] For the purpose of confirming the ability of acanthoic acid to suppress the action of IL-1 and TNF-α, its inhibitory effect on the collagen synthesis in rat pulmonary fibroblast and pulmonary tissues was determined. The amount of produced collagen in the culture of rat pulmonary fibroblast was measured by an indirect ELISA method, and that of pulmonary tissue was determined by measuring the concentration of hydroxyproline and calculating the amount of collagen therefrom by using the standard curve of internal control group. […]"}},
  "data": [
    {"smiles": "C=C[C@@]1(C)CC=C2C(CCC3[C@](C)(C(=O)O)CCC[C@@]23C)C1", "note": "(single isomer, unassigned; (-)) [acanthoic acid, (-)-pimara-9(11),15-diene-19-oic acid]", "values": [
      {"measurement": "cytotoxicity", "setting": "[1]", "result": "no cytotoxicity"},
      {"measurement": "amount of synthesized collagen", "setting": "[2]", "result": "decreases significantly"}
    ]}
  ]
}
